Assay results reported in US12378190B2, “Two-component coating system” (COVESTRO (NETHERLANDS) B.V., priority 2020, dated 2025).

Tests used:
[1] = test system: Bscl2-GFP and Rtkn-GFP mES reporter cell lines; assay: ToxTracker genotoxicity assay, overall conclusion; conditions: positive: >=2-fold induction; weakly positive: >1.5 and <2-fold; negative: <=[…] at 10, 25 and 50% cytotoxicity, with and without S9
Description: A 2 L four-necked flask equipped with a thermometer and overhead stirrer was charged with sodium lauryl sulphate (30% solids in water, 18.6 grams of solution) and demineralized water (711 grams). The reactor phase was placed under N2 atmosphere and heated to 82° C. A mixture of demineralized water (112 grams), sodium lauryl sulphate (30% solids in water, 37.2 grams of solution), methyl methacrylate (209.3 grams), n-butyl acrylate (453.56 grams) and methacrylic acid (34.88 grams) was placed in a large feeding funnel and emulsified with an overhead stirrer (monomer feed). Ammonium persulphate (1.75 grams) was dissolved in demineralized water (89.61 grams) and placed in a small feeding funnel (initiator feed). Ammonium persulphate (1.75 grams) was dissolved in demineralized water (10.5 grams), and this solution was added to the reactor phase. Immediately afterwards, 5% by volume of the monomer feed was added to the reactor phase. The reaction mixture then exothermed to 85° C. and was kept at 85° C. for 5 minutes. Then, the residual monomer feed and the initiator feed were fed to the reaction mixture over 90 minutes, maintaining a temperature of 85° C. […] Metabolic was evaluated by addition of S9 liver extract. […] Only GFP expression in intact single cells is determined. […]

[2] = test system: Rtkn-GFP mouse embryonic stem (mES) reporter cell line; assay: ToxTracker genotoxicity assay, Rtkn-GFP reporter induction
Description: A 2 L four-necked flask equipped with a thermometer and overhead stirrer was charged with sodium lauryl sulphate (30% solids in water, 18.6 grams of solution) and demineralized water (711 grams). The reactor phase was placed under N2 atmosphere and heated to 82° C. A mixture of demineralized water (112 grams), sodium lauryl sulphate (30% solids in water, 37.2 grams of solution), methyl methacrylate (209.3 grams), n-butyl acrylate (453.56 grams) and methacrylic acid (34.88 grams) was placed in a large feeding funnel and emulsified with an overhead stirrer (monomer feed). Ammonium persulphate (1.75 grams) was dissolved in demineralized water (89.61 grams) and placed in a small feeding funnel (initiator feed). Ammonium persulphate (1.75 grams) was dissolved in demineralized water (10.5 grams), and this solution was added to the reactor phase. Immediately afterwards, 5% by volume of the monomer feed was added to the reactor phase. The reaction mixture then exothermed to 85° C. and was kept at 85° C. for 5 minutes. Then, the residual monomer feed and the initiator feed were fed to the reaction mixture over 90 minutes, maintaining a temperature of 85° C. After completion of the feeds, the monomer feed funnel was rinsed with demineralized water (18.9 grams) and reaction temperature maintained at 85° C. for 45 minutes. Subsequently, the mixture was cooled to room temperature and brought to pH=7.2 with ammonia solution (6.25 wt. % in demineralized water), and brought to 40% solids with further demineralized water. […] This methodology uses a two step-approach. […] Metabolic was evaluated by addition of S9 liver extract. […] Only GFP expression in intact single cells is determined. […] Components and Abbreviations Used: Dimethylformamide (CAS No. 68-12-2) was obtained from Acros Organics (a division of Thermo Fisher Scientific). […] IPDI (5-isocyanato-1-(isocyanatomethyl)-1,3,3-trimethylcyclohexane, Desmodur® I, isophorone diisocyanate, CAS No. 4098-71-9) was obtained from Covestro. Polyethylene Glycol Monomethyl Ether (CAS No. 9004-74-4) with a number average molecular weight of 1000 Da was obtained from Tokyo Chemical Industry Co., Ltd. Vestanat® T 1890/100, an isophorone diisocyanate based isocyanurate (CAS No. 67873-91-0) was obtained from Evonik. Desmodur® N3600 was obtained from Covestro. 1-methoxy-2-propanol acetate (propylene glycol methyl ether acetate, CAS No. 108-65-6) was obtained from Shell Chemicals. 1-(2-hydroxyethyl)ethyleneimine) (CAS No. 1072-52-2) was obtained from Tokyo Chemical Industry Co., Ltd. Jeffamine® XTJ-436 (CAS No. 118270-87-4) was obtained from Huntsman Bismuth neodecanoate (CAS No. 34364-26-6) obtained from TIB chemicals AG (Mannheim, Germany). Hydrazine (16% solution in water, CAS No. 302-01-2) was obtained from Honeywell. Dimethylol propionic acid (DMPA, CAS No. 4767-03-7) was obtained from Perstop Polyols. Triethylamine (TEA, CAS No. 121-44-8) was obtained from Arkema 1-propanol (CAS No. 71-23-8) was obtained from Sigma-Aldrich. Tin 2-ethylhexanoate (CAS No. 301-10-0) was obtained from Sigma-Aldrich. Dibutyltindilaurate (CAS No. 77-58-7) was obtained from Sigma-Aldrich. Tegomer® D3403 was obtained from Evonik. Polypropyleneglycol with a number average molecular weight of 1000 Da and with a number average molecular weight of 2000 Da was obtained from BASF. 3-Methyl-1-phenyl-2-phospholene-1-oxide (CAS No. 707-61-9) was obtained from Sigma-Aldrich. 1-Butanol (CAS No. 71-36-3) was obtained from Sigma-Aldrich. Sodium lauryl sulphate (30% solution in water, CAS No. 73296-89-6) was obtained from BASF. Methyl methacrylate (CAS No. 80-62-6) was obtained from Lucite Int. n-Butyl acrylate (CAS No. 141-32-2) was obtained from Dow Chemical. Methacrylic acid (CAS No. 79-41-4) was obtained from Lucite Int. Ammonium persulphate (CAS No. 7727-54-0) was obtained from United Initiators. Ammonia (25% solution in water, CAS No. 1336-21-6) was obtained from Merck

Row | Compound | Genotoxicity test conclusion [1] | Rtkn induction level ([2]; with S9 rat liver extract, 3 h exposure and 24 h recovery, at 10% cytotoxicity) | Rtkn induction level ([2]; with S9 rat liver extract, 3 h exposure and 24 h recovery, at 25% cytotoxicity) | Rtkn induction level ([2]; with S9 rat liver extract, 3 h exposure and 24 h recovery, at 50% cytotoxicity) | Rtkn induction level ([2]; without S9 rat liver extract, 24 h exposure, at 10% cytotoxicity) | Rtkn induction level ([2]; without S9 rat liver extract, 24 h exposure, at 25% cytotoxicity) | Rtkn induction level ([2]; without S9 rat liver extract, 24 h exposure, at 50% cytotoxicity)
1 | O=C(CCN1CC1)OCC(CO)(COC(=O)CCN1CC1)COC(=O)CCN1CC1 [Comparative Example 3, pentaerythritol tris(3-(1-aziridinyl)propionate)] | genotoxic | – | – | – | – | – | –
2 | O=C(NCCCCCCn1c(=O)n(CCCCCCNC(=O)OCCN2CC2)c(=O)n(CCCCCCNC(=O)OCCN2CC2)c1=O)OCCN1CC1 [compound 2] | genotoxic | 2.0 fold | 3.4 fold | 3.0 fold | 1.7 fold | 2.4 fold | 2.8 fold
